Experimental data reported in patent US20150056166A1, “FLAVONE DERIVATIVES AND THEIR USE” (Twincore GmbH, priority 2012, published 2015).
pIC50: −log10 of the molar value.

Columns and labels:
[1] = tested on: H77c (GT1a); experiment: Luciferase infection assay, chimeric reporter virus H77c/1a/R2a in Huh7-Lunet/CD81 cells; assay type: cell-based, HCV; settings: Hepatitis C virus, Huh-7, 72 h
[2] = tested on: Jc1; experiment: HCV virus assembly/release, intra- and extracellular core protein after Jc1 RNA transfection; assay type: cell-based; settings: up to a dose of 20 μM, 48 h after transfection
Protocol: (A) Huh7-Lunet/CD81 cells were transfected with the subgenomic luciferase replicon depicted at the top. Drugs were added 4 h post transfection and the level of HCV RNA translation and RNA replication was quantified by luciferase assays 72 h post transfection. Mean values of three independent experiments each with quadruplicate measurements including the standard deviation are shown. (B) Cells were transfected with the Jc1 chimera depicted above and drugs were added 4 h later. HCV virus release in the presence or absence of given compounds was determined by quantification of intracellular and extracellular core protein levels using a core-specific ELISA. Mean values of three independent experiments with single measurements including the error range are given. (C) Huh7-Lunet/CD81 cells were inoculated with Luc-Jc1 reporter viruses prepared in the absence of drugs. BJ486K was added to the cells only prior to inoculation (black), only during inoculation (grey) or selectively directly after inoculation (white) as schematically depicted at the top. Infectivity was determined 72 h later by luciferase assays and compared to DMSO-treated controls. Mean values of three independent experiments each with quadruplicate measurements including the standard deviation are shown.
Huh7-Lunet/CD81 cells were transfected with Jc1 RNA and seeded on a 6-well plate. Compounds were added 4 h later. At 48 h after transfection, cell culture supernatant was harvested and used for measuring the extracellular core amount. Cells were washed once with PBS, scraped and centrifuged for 5 min at 1000×g. Cell pellets were resuspended in 500 μl fresh culture fluid and subjected to three cycles of freeze and thaw using liquid nitrogen and a 37° C. thermo block. Samples were than centrifuged at 10,000×g for 10 min to remove cell debris and the core amount was measured (intracellular core protein) using the […] […]
To determine whether BJ486K affects virus assembly or release we transfected Huh7-Lunet/CD81 cells with Jc1 RNA and quantified intra- and extracellular levels of core protein 48 h after transfection (FIG. 2B).

[3] = tested on: Luc-Jc1/E2/G451R reporter viruses; experiment: Resistance test, Luc-Jc1 versus Luc-Jc1/E2/G451R reporter virus; assay type: cell-based, HCV; settings: Huh7-Lunet/CD81 cells, luciferase 72 h
Protocol: (§1) FIG. 4: BJ486K is not affected by viral resistance towards a SR-BI-targeting compound, inhibits HCV of different genotypes and prevents infection of primary human hepatocytes Huh7-Lunet/CD81 cells were inoculated with Luc-Jc1 or Luc-Jc1/E2/G451R reporter viruses in the presence of increasing doses of (A) ITX 5061 or (B) BJ486K. Cells were lysed 72 h later. Luciferase activity was determined and is expressed relative to control infections conducted in the presence of DMSO. Mean values of four independent experiments each with quadruplicate measurements including the standard deviation are shown. (C) Huh7-Lunet/CD81 cells were inoculated with genotype 1a, 1b, 2b, 3a, 4a, 5a and 6a chimeric reporter viruses in the presence of increasing doses of BJ486K. Luciferase activity was determined 72 h later and is expressed relative to infections in the presence of DMSO. Mean values of three independent experiments, each with triplicate measurements, are given. (D) Primary human hepatocytes were inoculated with Con1/C3 in the presence of DMSO or increasing concentrations of BJ486K. The inhibition of HCV infection was assessed by focus-formation assay and is expressed as % inhibition relative to DMSO-treated cells. Mean values of duplicate measurements including the error range are given. […]

[4] = tested on: Con1/C3-HCV; experiment: Infection of primary human hepatocytes, focus-formation assay; assay type: cell-based; settings: Hepatitis C virus, genotype 1b, Hepatocyte, 72 h
Protocol: as §1, with “(C) Huh7-Lunet/CD81 cells were inoculated with genotype 1a, 1b, 2b, 3a, 4a, 5a and 6a chimeric reporter viruses in the presence of increasing doses of BJ486K.” left out, “Mean values of three independent experiments, each with triplicate measurements, are given. (D) Primary human hepatocytes were inoculated with Con1/C3 in the presence of DMSO or increasing concentrations of BJ486K.” left out, “cells.” for “cells. Mean values of duplicate measurements including the error range are given.”
Normal-appearing liver tissue from patients seronegative for HCV, hepatitis B virus, and human immunodeficiency virus (HIV) was obtained from adult patients undergoing partial hepatectomy for the therapy of metastases. […] Three days later, infectivity titers in culture supernatants were determined by focus-formation assay as previously described by (Pene et al., Journal of Viral Hepatitis 2009;16:705-15). […]

[5] = tested on: Jc1; experiment: Infection of DMSO-differentiated Huh7-Lunet/CD81 cells with Jc1, limiting dilution assay; assay type: cell-based, HCV; settings: virus production monitored for 12 days
Excerpt: Next, we investigated if combination of CsA, an inhibitor of HCV RNA-replication in vitro and in vivo and also an immunosuppressive drug used in the HCV post-transplant setting, with BJ486K would increase antiviral potency. To this end, we challenged Huh7-Lunet/CD81 cells differentiated by DMSO-treatment with the highly infectious Jc1 chimera in the presence of CsA, BJ486K or a combination of both drugs (FIG. 5). […] To obtain a more quantitative measure for the combined antiviral effect of BJ486K and CsA, we inoculated nave Huh7-Lunet/CD81 cells with JcR-2a virus together with varying doses of both drugs (FIG. 6A).

## COc1ccc(-c2cc(=O)c3c(O)c(O)c(OC)cc3o2)cc1 [BJ486K, 5,6-Dihydroxy-7-methoxy-2-(4-methoxy-phenyl)-chromen-4-one]
[1]
  pIC50: 5.61
  IC90: 11.6 µM
[2]
  intracellular and extracellular core protein levels: reduced neither intracellular nor extracellular core protein levels
[3]
  antiviral activity against G451R mutant compared with wild type: not changed
[4]
  pIC50: ~5.00
[5]
  effect on infection of differentiated cells, in words: reduced infection almost down to background levels
